Source: patent US20090239858A1, “THERAPEUTIC AMIDES” (ALLERGAN, INC., priority 2008, published 2009)

Test system: lashes and adjacent hairs of patients
Assay: Eyelash and hair growth observed in glaucoma patients treated in one eye
Assay type: in vivo, human
Details: glaucoma patients treated in only one eye
Excerpt: In the course of treating patients having glaucoma, treatment may only be appropriate in one eye. […] The lash appearance on the lids of the treated eyes would have appeared quite attractive if it represented a bilateral phenomenon. As a result of its asymmetric nature, the long lashes on one side could be construed as disturbing from a cosmetic standpoint. A systemic examination was preformed as a result of the asymmetric phenomenon. It soon became apparent that this altered appearance was not an isolated finding. […] Definite differences could be identified to varying degrees in the lashes and adjacent hairs of all patients who were taking the drug on a unilateral basis for longer than 6 months.
The changes in the lashes were apparent on gross inspection in several patients once attention was focused on the issue. In those with light colored hair and lashes, the differences were only seen easily with the aid of the high magnification and lighting capabilities of the slit lamp biomicroscope. In the course of glaucoma follow-up examination, attention is generally immediately focused on the eye itself. As a result of the high power magnification needed only one eye is seen at a time and the eye is seen at a high enough power that the lashes are not in focus. […]

CCNC(=O)CCC/C=C\C[C@@H]1[C@@H](/C=C/[C@@H](O)CCc2ccccc2)[C@H](O)C[C@@H]1O [bimatoprost]
lash appearance in treated eye versus non-treated eye: longer, thicker, and fuller
